Results: patent publication US20230346961A1, “GLP-1 AND GIP RECEPTOR CO-AGONISTS” (Novo Nordisk A/S, priority 2020, published 2023)
Read-outs that look alike come from different tables or passages of the source. Starred links: 1 amine or outer side, 2 acyl side, 3 side chain; linkers in the order of their positions; H or OH if unused. Non-standard residues stand in square brackets, D forms with d. Residues, ends and D or L forms follow the SMILES beside them. Groups on a side chain read outwards from the residue. *: point of attachment. C20 diacid = O=C(O)CCCCCCCCCCCCCCCCCCC(=O)*; γGlu = O=C(O)[C@H](CCC(=O)[*:2])N[*:1]; εLys = N[C@@H](CCCCN[*:1])C(=O)[*:2]; Trx = NC[C@H]1CC[C@H](C(=O)O)CC1; AEEA = NCCOCCOCC(=O)O; Aib = CC(C)(N)C(=O)O

What was measured:
[1] = Pharmacokinetic study in minipigs (terminal half-life after i.v. administration); type: in vivo; details: female, Göttingen, minipig, iv
Experimental: The purpose of this example is to determine the half-life in vivo of the derivatives of the present invention after i.v. administration to minipigs, i.e. the prolongation of their time in the body and thereby their time of action. This is done in a pharmacokinetic (PK) study, where the terminal half-life of the derivative in question is determined. By terminal half-life is generally meant the period of time it takes to […] certain plasma concentration, measured after the initial distribution phase. Female Göttingen minipigs were obtained from Ellegaard Göttingen Minipigs (Dalmose, Denmark) approximately 7-14 months of age and weighing from approximately 16-35 kg were used in the studies. The minipigs were housed individually and fed restrictedly once daily with SDS minipig diet (Special Diets Services, Essex, UK). After at 3 weeks of acclimatisation two permanent central venous catheters were implanted in vena cava caudalis in each animal. The animals were allowed 1 week recovery after the surgery, and were then used for repeated pharmacokinetic studies with a suitable wash-out period between successive derivative dosing. The animals were fasted for approximately 18 hours before dosing and from 0 to 4 hours after dosing, but had adlibitum access to water during the whole period. […] Blood samples (for example 0.8 mL) were collected in 8 mM EDTA buffer and then centrifuged at 4° C. and 1942 g for 10 minutes. Plasma was pipetted into Micronic tubes on dry ice and kept at -20° C. until analysed for plasma concentration of the compounds using ELISA, or a similar antibody-based assay, or LCMS. […] (Pharsight Inc., Mountain View, CA, USA), and the resulting terminal half-lives (harmonic mean) determined.

human glucagon receptor = human glucagon receptor (Homo sapiens, UniProt P47871); experiment: cell-based
Sequence of human glucagon receptor (P47871 26-477): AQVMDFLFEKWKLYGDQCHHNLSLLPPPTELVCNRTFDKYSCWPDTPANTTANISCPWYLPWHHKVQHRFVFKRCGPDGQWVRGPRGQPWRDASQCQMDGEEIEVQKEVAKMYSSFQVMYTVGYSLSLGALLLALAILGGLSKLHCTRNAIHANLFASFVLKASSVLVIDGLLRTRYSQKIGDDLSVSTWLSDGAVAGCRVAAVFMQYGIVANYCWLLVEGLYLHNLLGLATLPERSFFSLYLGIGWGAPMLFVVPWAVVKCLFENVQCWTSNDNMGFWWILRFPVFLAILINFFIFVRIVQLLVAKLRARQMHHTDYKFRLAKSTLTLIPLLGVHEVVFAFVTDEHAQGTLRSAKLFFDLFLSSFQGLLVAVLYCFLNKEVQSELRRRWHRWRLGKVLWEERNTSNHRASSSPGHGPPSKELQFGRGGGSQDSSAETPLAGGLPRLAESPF

human GLP-1 receptor = human GLP-1 receptor (Homo sapiens, UniProt P43220); experiment: cell-based; details: hGLP-1R
Sequence of human GLP-1 receptor (P43220 24-463): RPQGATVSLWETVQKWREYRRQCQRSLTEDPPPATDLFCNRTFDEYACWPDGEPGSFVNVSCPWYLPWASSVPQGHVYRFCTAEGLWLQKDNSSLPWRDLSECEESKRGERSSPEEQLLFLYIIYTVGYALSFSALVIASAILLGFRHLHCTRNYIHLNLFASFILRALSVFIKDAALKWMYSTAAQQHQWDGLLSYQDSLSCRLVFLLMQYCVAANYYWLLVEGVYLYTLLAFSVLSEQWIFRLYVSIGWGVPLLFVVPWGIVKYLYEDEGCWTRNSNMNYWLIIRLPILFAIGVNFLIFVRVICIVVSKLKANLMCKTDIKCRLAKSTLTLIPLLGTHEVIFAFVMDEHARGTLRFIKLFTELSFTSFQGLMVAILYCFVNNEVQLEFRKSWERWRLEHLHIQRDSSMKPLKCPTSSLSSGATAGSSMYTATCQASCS
Experimental: (§1) The in vitro functional potency is the measure of target receptor activation in a whole cell assay.
(§2) In vitro functional potency was determined by measuring the response of the target receptor in a reporter gene assay in individual cell lines. […] When the respective receptor is activated, it results in the production of cAMP, which in turn results in expression of the luciferase protein. When assay incubation is completed, luciferase substrate (luciferin) is added resulting in the enzymatic conversion of luciferin to oxyluciferin and producing bioluminescence. The luminescence is measured as the readout for the assay.
(§3) The cells lines used in these assays were BHK cells with BHKTS13 as a parent cell line. The cell lines were derived from a clone containing the CRE luciferase element and were established by further transfection with the respective receptor to obtain the relevant cell line.
(§4) The cells were cultured at 37° C. with 5% CO2 in Cell Culture Medium. They were aliquoted and stored in liquid nitrogen. The cells were kept in continuous culture and were seeded out the day before each assay.
(§5) GLP-1R and GcgR Cell Culture Medium consisted of DMEM medium with 10% FBS, 500 μg/mL G418, and 300 μg/mL hygromycin. GIPR Cell Culture Medium consisted of DMEM medium with 10% FBS, 400 μg/mL G418, and 300 μg/mL hygromycin. Assay Buffer consisted of DMEM w/o phenol red, 10 mM Hepes, 1×Glutamax, 1% ovalbumin, and 0.1% Pluronic F-68 with the addition of HSA at twice the final assay concentration.
(§6) • 1) Cells were plated at 5000 cells/well and incubated overnight in the assay plate. • 2) Cells were washed once in DPBS. • 3) Stocks of the test compounds and reference compounds in concentrations ranging from 100-300 μM were diluted 1:150 in Assay Buffer. Compounds were then diluted 1:10 in column 1 of a 96 deep well dilution plate and then carried across the row creating a 3.5 fold, 12 point dilution curve. • 4) Assay Buffer (50 μl aliquot) with or without HSA was added to each well in the assay plate. • 5) A 50 μl aliquot of compound or blank was transferred from the dilution plate to the assay plate containing the Assay Buffer with or without HSA. • 6) The assay plate was incubated for 3 h in a 5% CO2 incubator at 37° C. 7) The cells were washed once with DPBS. • 8) A 100 μl aliquot of DPBS was added to each well of the assay plate. • 9) A 100 μl aliquot of steadylite plus reagent (light sensitive) was added to each well of the assay plate. • 10) Each assay plate was covered with aluminum foil to protect it from light and shaken at 250 RPM for 30 min at room temperature. • 11) Each assay plate was read in a microtiter plate reader.
(§7) The data from the microtiter plate reader was first regressed in an Excel in order to calculate the x-axis, log scale concentrations based on the individual test compound's stock concentration and the dilutions of the assay. […] The software performs a non-linear regression (log(agonist) vs response). A minimum of two replicates was measured for each sample. The reported values are averages of the replicates.

mouse GLP-1 receptor = biological target: T1, mouse GLP-1 receptor (Mus musculus, UniProt O35659)
T1 sequence (O35659 22-463): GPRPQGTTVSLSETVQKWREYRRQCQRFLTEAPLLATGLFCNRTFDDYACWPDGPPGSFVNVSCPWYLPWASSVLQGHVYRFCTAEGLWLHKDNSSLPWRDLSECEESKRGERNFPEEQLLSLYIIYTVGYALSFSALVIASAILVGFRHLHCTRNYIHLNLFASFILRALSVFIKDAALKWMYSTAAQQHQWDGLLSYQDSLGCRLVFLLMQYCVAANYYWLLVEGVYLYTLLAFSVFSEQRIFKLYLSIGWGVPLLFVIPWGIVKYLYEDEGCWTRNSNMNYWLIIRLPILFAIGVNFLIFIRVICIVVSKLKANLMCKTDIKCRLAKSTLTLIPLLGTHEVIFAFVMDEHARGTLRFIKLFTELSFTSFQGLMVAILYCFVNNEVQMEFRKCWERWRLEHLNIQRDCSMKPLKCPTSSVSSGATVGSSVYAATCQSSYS

mouse GIP receptor = biological target: T2, mouse GIP receptor (Mus musculus, UniProt Q0P543); experiment: cell-based
T2 sequence (Q0P543 19-460): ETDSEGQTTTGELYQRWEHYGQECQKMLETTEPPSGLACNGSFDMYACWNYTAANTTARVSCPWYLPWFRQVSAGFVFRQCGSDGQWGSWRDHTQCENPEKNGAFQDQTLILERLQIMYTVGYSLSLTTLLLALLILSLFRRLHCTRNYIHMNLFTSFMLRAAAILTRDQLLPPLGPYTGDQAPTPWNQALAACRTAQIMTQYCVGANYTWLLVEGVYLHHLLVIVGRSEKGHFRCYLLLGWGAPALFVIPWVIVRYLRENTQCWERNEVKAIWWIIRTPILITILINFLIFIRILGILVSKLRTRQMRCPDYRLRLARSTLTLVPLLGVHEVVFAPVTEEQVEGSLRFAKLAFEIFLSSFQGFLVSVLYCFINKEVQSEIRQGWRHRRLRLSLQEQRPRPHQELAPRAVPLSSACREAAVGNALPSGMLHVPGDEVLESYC
Experimental: as §1, §2, §3, §4, §5, §6, §7

CC[C@H](C)[C@H](NC(=O)[C@H](CO)NC(=O)[C@H](Cc1ccc(O)cc1)NC(=O)[C@H](CC(=O)O)NC(=O)[C@H](CO)NC(=O)[C@@H](NC(=O)[C@H](Cc1ccccc1)NC(=O)[C@@H](NC(=O)CNC(=O)[C@H](CCC(=O)O)NC(=O)C(C)(C)NC(=O)[C@@H](N)Cc1ccc(O)cc1)[C@@H](C)O)[C@@H](C)O)C(=O)N[C@@H](Cc1ccc(O)cc1)C(=O)N[C@@H](CC(C)C)C(=O)N[C@@H](CCC(=O)O)C(=O)N[C@@H](CCCCNC(=O)COCCOCCNC(=O)COCCOCCNC(=O)CC[C@H](NC(=O)[C@H]1CC[C@H](CNC(=O)CCCCCCCCCCCCCCCCCCC(=O)O)CC1)C(=O)O)C(=O)N[C@@H](CCC(N)=O)C(=O)N[C@@H](C)C(=O)N[C@@H](C)C(=O)NC(C)(C)C(=O)N[C@@H](CCC(=O)O)C(=O)N[C@@H](Cc1ccccc1)C(=O)N[C@H](C(=O)N[C@@H](CC(N)=O)C(=O)N[C@@H](Cc1c[nH]c2ccccc12)C(=O)N[C@@H](CC(C)C)C(=O)N[C@@H](CC(C)C)C(=O)N[C@@H](C)C(=O)NCC(=O)NCC(=O)N1CCC[C@H]1C(=O)N[C@@H](CO)C(=O)N[C@@H](CO)C(=O)NCC(=O)N[C@@H](C)C(=O)N1CCC[C@H]1C(=O)N1CCC[C@H]1C(=O)N1CCC[C@H]1C(=O)N[C@@H](CO)C(N)=O)C(C)C [Compound 21] (H-Y[Aib]EGTFTSDYSIYLEK([AEEA-AEEA-γGlu-Trx-C20 diacid])QAA[Aib]EFVNWLLAGGPSSGAPPPS-NH2; N-terminus assumed)
half-life ([1]; in vivo): 62 h
EC50 (human glucagon receptor): > 10 nM
EC50 (human GLP-1 receptor; CRE Luc 0% HSA EC50, 0% HSA): 0.003 nM
EC50 (human GLP-1 receptor; CRE Luc 1% HSA EC50, 1% HSA): 0.465 nM
EC50 (mouse GLP-1 receptor): 0.0026 nM
EC50 (mouse GIP receptor): 0.0366 nM

CC[C@H](C)[C@H](NC(=O)[C@H](CO)NC(=O)[C@H](Cc1ccc(O)cc1)NC(=O)[C@H](CC(=O)O)NC(=O)[C@H](CO)NC(=O)[C@@H](NC(=O)[C@H](Cc1ccccc1)NC(=O)[C@@H](NC(=O)CNC(=O)[C@H](CCC(=O)O)NC(=O)C(C)(C)NC(=O)[C@@H](N)Cc1ccc(O)cc1)[C@@H](C)O)[C@@H](C)O)C(=O)N[C@@H](Cc1ccc(O)cc1)C(=O)N[C@@H](CC(C)C)C(=O)N[C@@H](CCC(=O)O)C(=O)N[C@@H](CCCCN)C(=O)N[C@@H](CCCCNC(=O)COCCOCCNC(=O)COCCOCCNC(=O)CC[C@H](NC(=O)[C@H]1CC[C@H](CNC(=O)CCCCCCCCCCCCCCCCCCC(=O)O)CC1)C(=O)O)C(=O)N[C@@H](C)C(=O)N[C@@H](C)C(=O)NC(C)(C)C(=O)N[C@@H](CCC(=O)O)C(=O)N[C@@H](Cc1ccccc1)C(=O)N[C@H](C(=O)N[C@@H](CC(N)=O)C(=O)N[C@@H](Cc1c[nH]c2ccccc12)C(=O)N[C@@H](CC(C)C)C(=O)N[C@@H](CC(C)C)C(=O)N[C@@H](C)C(=O)NCC(=O)NCC(=O)N1CCC[C@H]1C(=O)N[C@@H](CO)C(=O)N[C@@H](CO)C(=O)NCC(=O)N[C@@H](C)C(=O)N1CCC[C@H]1C(=O)N1CCC[C@H]1C(=O)N1CCC[C@H]1C(=O)N[C@@H](CO)C(N)=O)C(C)C [Compound 22] (H-Y[Aib]EGTFTSDYSIYLEKK([AEEA-AEEA-γGlu-Trx-C20 diacid])AA[Aib]EFVNWLLAGGPSSGAPPPS-NH2; N-terminus assumed)
half-life ([1]; in vivo): 95 h
EC50 (human glucagon receptor): > 10 nM
EC50 (human GLP-1 receptor; CRE Luc 0% HSA EC50, 0% HSA): 0.0033 nM
EC50 (human GLP-1 receptor; CRE Luc 1% HSA EC50, 1% HSA): 1.13 nM
EC50 (mouse GLP-1 receptor): 0.0021 nM
EC50 (mouse GIP receptor): 0.124 nM

CC[C@H](C)[C@H](NC(=O)[C@H](CO)NC(=O)[C@H](Cc1ccc(O)cc1)NC(=O)[C@H](CC(=O)O)NC(=O)[C@H](CO)NC(=O)[C@@H](NC(=O)[C@H](Cc1ccccc1)NC(=O)[C@@H](NC(=O)CNC(=O)[C@H](CCC(=O)O)NC(=O)C(C)(C)NC(=O)[C@@H](N)Cc1ccc(O)cc1)[C@@H](C)O)[C@@H](C)O)C(=O)N[C@@H](Cc1ccc(O)cc1)C(=O)N[C@@H](CC(C)C)C(=O)N[C@@H](CCC(=O)O)C(=O)N[C@@H](CCCCNC(=O)[C@@H](N)CCCCNC(=O)[C@@H](N)CCCCNC(=O)CC[C@H](NC(=O)CCCCCCCCCCCCCCCCCCC(=O)O)C(=O)O)C(=O)N[C@@H](CCC(N)=O)C(=O)N[C@@H](C)C(=O)N[C@@H](C)C(=O)NC(C)(C)C(=O)N[C@@H](CCC(=O)O)C(=O)N[C@@H](Cc1ccccc1)C(=O)N[C@H](C(=O)N[C@@H](CC(N)=O)C(=O)N[C@@H](Cc1c[nH]c2ccccc12)C(=O)N[C@@H](CC(C)C)C(=O)N[C@@H](CC(C)C)C(=O)N[C@@H](C)C(=O)NCC(=O)NCC(=O)N1CCC[C@H]1C(=O)N[C@@H](CO)C(=O)N[C@@H](CO)C(=O)NCC(=O)N[C@@H](C)C(=O)N1CCC[C@H]1C(=O)N1CCC[C@H]1C(=O)N1CCC[C@H]1C(=O)N[C@@H](CO)C(N)=O)C(C)C [Compound 28] (H-Y[Aib]EGTFTSDYSIYLEK([εLys-εLys-γGlu-C20 diacid])QAA[Aib]EFVNWLLAGGPSSGAPPPS-NH2; N-terminus assumed)
half-life ([1]; plasma, minipigs, i.v. administration, harmonic mean, read-out: Terminal half-life t1/2 (converted)): 111 h
EC50 (human glucagon receptor): > 10 nM
EC50 (human GLP-1 receptor; CRE Luc 0% HSA EC50, 0% HSA): 0.005 nM
EC50 (human GLP-1 receptor; CRE Luc 1% HSA EC50, 1% HSA): 0.356 nM
EC50 (mouse GLP-1 receptor): 0.0023 nM
EC50 (mouse GIP receptor): 0.026 nM
